Experimental data reported in article PMC2866738 (Biochemistry, 2010).

Tested on: IN double-mutant G140S-Q148H (SH)
Assay type: biochemical

Cc1nnc(C(=O)NC(C)(C)c2nc(C(=O)NCc3ccc(F)cc3)c(O)c(=O)n2C)o1 [RAL, Raltegravir]
increase in IC50 for 3′-P compared to WT (resistance factor): more than 62 fold
